Experimental data published in patent US20120122730A1, “Methods for Quantitative Analyses of Kinase Inhibitor Selectivity Using Small Size Panels” (priority 2010, published 2012).

Tested on: panel of 287 distinct human protein kinases, three lipid kinases, and 27 disease-relevant mutant variants
Test: Weighted selectivity score from competition binding assays against a kinase panel
Conditions: Kd thresholds <100 nM, <1 μM, <3 μM weighted; panel of 317 assays; FIG. 7
Experimental: In one embodiment, a kinase subset may be determined by using a computational method that can extract knowledge from large amounts of data from known cancer drug designs and find a subset of kinases. A first step in determining a kinase subset involves the use of data from competition binding assays where kinase inhibitors are evaluated against a panel of protein kinases. For each interaction, a quantitative dissociation constant (Kd) is needed.
In one embodiment, a quantitative description, called a weighted selectivity score, is developed for assessing kinome-wide compound reactivities by suitably coarse-graining the binding-affinity vector. […] The weighted selectivity score (normalized or not) is an unbiased measure that enables quantitative comparisons between compounds and the detailed differentiation and analysis of interaction patterns. […]
To validate a method of the present disclosure, data from a previous competition binding assays was used wherein 38 kinase inhibitors were evaluated against a panel of 287 distinct human protein kinases, three lipid kinases, and 27 disease-relevant mutant variants. […] Each compound was screened against the panel of 317 assays at a single concentration of 10 μM to identify candidate kinase targets, and for each interaction observed in this primary screen a quantitative dissociation constant was determined.

For `COc1ccc(COc2ccc(Cc3cnc(N)nc3N)cc2OC)cc1` [GW-2580], which “weighted selectivity score (overall score)” value is on record?
The value was 3.5.
